Reference: patent US10590086B2, “Pharmaceutical compound” (IOmet Pharma Ltd., priority 2014, dated 2020)

Tests used:
IDO [1] = target: T1, IDO (Homo sapiens, UniProt P14902); assay: SKOV3 kynurenine cell-based assay (IDO induced by IFN-γ); set-up: IDO expression was induced in the SKOV3 cells by the addition of 500 ng/ml IFN-γ; endogenous in cells; host or cells: SKOV3 (human ovarian adenocarcinoma), induced with IFN-γ; settings: 48 hours, read-out: SKOV3 Kynurenine cell based assay pIC50 (converted)
Procedure, shortened: (§1)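 Kynurenine in the culture supernatant was measured by absorbance at 490 nm after 5 minutes with Ehrlich's reagent. Cells had been exposed ±compound for 48 hours at 37 °C in phenol red-free RPMI, 10% FCS, 2 mM L-glutamine and 500 μM L-tryptophan. Seeding was 30,000/well for A172 (TDO) and 40,000/well for SKOV3 (IDO, induced with 500 ng/ml IFN-γ).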

IDO [2] = target: T1, IDO; assay: hIDO biochemical coupled assay; settings: 45 μM L-tryptophan, read-out: hIDO biochemical assay pIC50 (converted)
TDO [3] = target: T2, TDO (Homo sapiens, UniProt P48775); assay: hTDO biochemical coupled assay; settings: 330 μM L-tryptophan, read-out: hTDO biochemical assay pIC50 (converted)
TDO [4] = target: T2, TDO; assay: A172 kynurenine cell-based assay; set-up: This assay utilised cancer cells which expressed either TDO or IDO; endogenous in cells; host or cells: A172 (human glioblastoma); settings: A172 human glioblastoma cells, 48 hours, read-out: A172 Kynurenine cell based assay pIC50 (converted)
Procedure, shortened: as §1

[5] = SKOV3 human ovarian adenocarcinoma cells, 500 ng/ml IFN-γ, 500 μM L-tryptophan

T2 sequence (P48775 whole entry): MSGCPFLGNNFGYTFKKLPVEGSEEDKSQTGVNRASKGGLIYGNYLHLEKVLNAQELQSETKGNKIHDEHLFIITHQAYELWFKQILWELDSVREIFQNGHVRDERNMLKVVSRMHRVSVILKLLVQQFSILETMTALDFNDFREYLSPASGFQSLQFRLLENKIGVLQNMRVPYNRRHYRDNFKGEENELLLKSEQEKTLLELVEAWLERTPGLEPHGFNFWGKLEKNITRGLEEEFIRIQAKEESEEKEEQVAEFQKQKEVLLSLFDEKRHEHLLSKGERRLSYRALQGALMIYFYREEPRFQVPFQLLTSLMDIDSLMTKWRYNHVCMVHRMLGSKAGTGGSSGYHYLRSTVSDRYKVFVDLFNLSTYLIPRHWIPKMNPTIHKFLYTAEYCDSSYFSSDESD
T1 sequence (P14902 whole entry): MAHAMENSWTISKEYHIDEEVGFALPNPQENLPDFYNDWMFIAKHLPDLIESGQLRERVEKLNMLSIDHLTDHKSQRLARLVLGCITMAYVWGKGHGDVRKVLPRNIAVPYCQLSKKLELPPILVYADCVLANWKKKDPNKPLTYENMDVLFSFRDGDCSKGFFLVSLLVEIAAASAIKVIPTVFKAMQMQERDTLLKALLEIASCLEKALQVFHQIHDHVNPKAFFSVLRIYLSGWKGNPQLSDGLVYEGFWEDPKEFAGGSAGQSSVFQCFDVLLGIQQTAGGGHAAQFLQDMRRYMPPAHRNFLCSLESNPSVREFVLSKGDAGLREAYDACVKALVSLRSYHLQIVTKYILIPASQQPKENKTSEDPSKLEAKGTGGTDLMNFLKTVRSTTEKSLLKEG

IC50 (IDO [1]; [5]) | IC50 (IDO [2]; 17 minutes, room temperature) | IC50 (TDO [3]; 17 minutes, room temperature) | IC50 (TDO [4]; 500 μM L-tryptophan) | IC50 (IDO [1]; SKOV3 cells, IDO induced by 500 ng/ml IFN-γ) | IC50 (IDO [2]) | IC50 (TDO [3]) | IC50 (TDO [4]) | SMILES
> 100 µM | > 100 µM | < 3.16 µM | < 3.16 µM | – | – | – | – | CS(=O)(=O)NCCN1CCN(c2cc(Cl)cc3[nH]ncc23)CC1 [Compound 403]
> 100 µM | < 3.16 µM | < 3.16 µM | < 3.16 µM | – | – | – | – | CS(=O)(=O)NC1CN(c2cc(Cl)cc3[nH]ncc23)C1 [Compound 431]
< 3.16 µM | > 100 µM | < 3.16 µM | < 3.16 µM | – | – | – | – | CC(=O)NCC1(C)CN(c2cc(Cl)cc3[nH]ncc23)C1 [Compound 446]
< 3.16 µM | < 3.16 µM | < 3.16 µM | < 3.16 µM | – | – | – | – | O=C1NC2(CCN(c3cc(Br)cc4[nH]ncc34)CC2)C(=O)N1Cc1ccccc1 [Compound 406]
> 100 µM | > 100 µM | < 3.16 µM | < 3.16 µM | – | – | – | – | O[C@@H]1CCCC[C@@H]1c1cc(Cl)cc2[nH]ncc12 [Compound 419]
< 3.16 µM | > 100 µM | < 3.16 µM | < 3.16 µM | – | – | – | – | CN1CCN(C2CCN(c3cc(Cl)cc4[nH]ncc34)CC2)C1=O [Compound 411]
> 100 µM | > 100 µM | < 3.16 µM | < 3.16 µM | – | – | – | – | Cc1nc2c(o1)CN(c1cc(C(F)(F)F)cc3[nH]ncc13)CC2(C)C [Compound 434]
< 3.16 µM | 3.24 to 31.6 µM | < 3.16 µM | < 3.16 µM | – | – | – | – | O=C1N(c2ccccc2)CNC12CCN(c1cc(Cl)cc3[nH]ncc13)CC2 [Compound 422]
> 100 µM | 32.4 to 100 µM | < 3.16 µM | < 3.16 µM | – | – | – | – | CC(=O)N1CCN(c2cc(Cl)cc3[nH]ncc23)CC1CO (centres unmarked) [Compound 454]
> 100 µM | > 100 µM | < 3.16 µM | < 3.16 µM | – | – | – | – | CN1C(=O)NC(C2CCN(c3cc(Cl)cc4[nH]ncc34)CC2)C1=O (centres unmarked) [Compound 444]
3.24 to 31.6 µM | < 3.16 µM | < 3.16 µM | < 3.16 µM | – | – | – | – | CS(=O)(=O)NCCN1C(=O)NC2(CCN(c3cc(Cl)cc4[nH]ncc34)CC2)C1=O [Compound 416]
> 100 µM | > 100 µM | > 100 µM | < 3.16 µM | – | – | – | – | Clc1cc(-c2cnn(-c3ccccc3)c2)c2cn[nH]c2c1 [Compound 399]
< 3.16 µM | < 3.16 µM | < 3.16 µM | < 3.16 µM | – | – | – | – | CC(C)CN1C(=O)NC2(CCN(c3cc(Cl)cc4[nH]ncc34)CC2)C1=O [Compound 388]
> 100 µM | 3.24 to 31.6 µM | < 3.16 µM | < 3.16 µM | – | – | – | – | CC(=O)NCCN1CCN(c2cc(Cl)cc3[nH]ncc23)CC1(C)C [Compound 421]
3.24 to 31.6 µM | > 100 µM | < 3.16 µM | < 3.16 µM | – | – | – | – | O=C1NCCN1C1CCN(c2cc(Cl)cc3[nH]ncc23)CC1 [Compound 410]
< 3.16 µM | < 3.16 µM | < 3.16 µM | < 3.16 µM | – | – | – | – | O=C1NC2(CCN(c3cc(Cl)cc4[nH]ncc34)CC2)C(=O)N1Cc1ncco1 [Compound 407]
> 100 µM | > 100 µM | < 3.16 µM | < 3.16 µM | – | – | – | – | Clc1cc(N2CCc3cn[nH]c3C2)c2cn[nH]c2c1 [Compound 417]
> 100 µM | > 100 µM | < 3.16 µM | < 3.16 µM | – | – | – | – | CNC(=O)CN1CCC(c2cc(Cl)cc3[nH]ncc23)CC1 [Compound 401]

Continued, molecule first:

SMILES | IC50 (IDO [1]; [5]) | IC50 (IDO [2]; 17 minutes, room temperature) | IC50 (TDO [3]; 17 minutes, room temperature) | IC50 (TDO [4]; 500 μM L-tryptophan) | IC50 (IDO [1]; SKOV3 cells, IDO induced by 500 ng/ml IFN-γ) | IC50 (IDO [2]) | IC50 (TDO [3]) | IC50 (TDO [4])
CN1C(=O)[C@@H]2CC[C@H]1CN(c1cc(Br)cc3[nH]ncc13)C2 [Compound 455] | > 100 µM | 3.24 to 31.6 µM | < 3.16 µM | < 3.16 µM | – | – | – | –
CS(=O)(=O)N1CCN(c2cc(Cl)cc3c(N)n[nH]c23)CC1 [Compound 306] | 3.24 to 31.6 µM | > 100 µM | > 100 µM | 3.24 to 31.6 µM | – | – | – | –
CC(=O)N1CCN(c2cc(Cl)cc3c(N)noc23)CC1(C)C [Compound 305] | 32.4 to 100 µM | > 100 µM | 32.4 to 100 µM | 3.24 to 31.6 µM | – | – | – | –
Cn1cc2c(n1)CCN(c1cc(Cl)cc3[nH]ncc13)C2 [Compound 360] | 3.24 to 31.6 µM | 32.4 to 100 µM | < 3.16 µM | < 3.16 µM | – | – | – | –
CC(=O)Nc1cc(N2CCN(S(C)(=O)=O)C(C)(C)C2)c2cn[nH]c2c1 [Compound 312] | > 100 µM | > 100 µM | > 100 µM | 3.24 to 31.6 µM | – | – | – | –
CC(=O)N1CC2(CCN(c3cc(Cl)cc4[nH]ncc34)CC2)C1 [Compound 359] | 3.24 to 31.6 µM | 3.24 to 31.6 µM | < 3.16 µM | < 3.16 µM | – | – | – | –
O=C1CCC2(CCN(c3cc(Cl)cc4[nH]ncc34)CC2)N1 [Compound 215] | 3.24 to 31.6 µM | 3.24 to 31.6 µM | < 3.16 µM | < 3.16 µM | – | – | – | –
Clc1cc(N2CCc3cnccc3C2)c2cn[nH]c2c1 [Compound 343] | 32.4 to 100 µM | > 100 µM | < 3.16 µM | < 3.16 µM | – | – | – | –
Cc1nc2c(n1C)CN(c1cc(C(F)(F)F)cc3[nH]ncc13)CC2 [Compound 357] | < 3.16 µM | > 100 µM | 3.24 to 31.6 µM | < 3.16 µM | – | – | – | –
CN(C)C(=O)CC1CCN(c2cc(Cl)cc3[nH]ncc23)CC1 [Compound 362] | 3.24 to 31.6 µM | > 100 µM | < 3.16 µM | 3.24 to 31.6 µM | – | – | – | –
CS(=O)(=O)N1C2COCC1CN(c1cc(Cl)cc3[nH]ncc13)C2 [Compound 314] | 32.4 to 100 µM | 32.4 to 100 µM | < 3.16 µM | < 3.16 µM | – | – | – | –
CCc1cc(C2CCN(S(C)(=O)=O)CC2)c2cn[nH]c2c1 [Compound 326] | 3.24 to 31.6 µM | 3.24 to 31.6 µM | < 3.16 µM | 3.24 to 31.6 µM | – | – | – | –
CS(=O)(=O)c1ccc(-c2cc(Cl)cc3[nH]ncc23)cc1Cl [Compound 264] | < 3.16 µM | 3.24 to 31.6 µM | < 3.16 µM | < 3.16 µM | – | – | – | –
CC(=O)N1CCN(c2cc(Cl)cc3c(N)n[nH]c23)CC1(C)C [Compound 307] | 3.24 to 31.6 µM | < 3.16 µM | < 3.16 µM | > 100 µM | – | – | – | –
O=C1NC2(CCN(c3cc(Cl)cc4[nH]ncc34)CC2)C(=O)N1CCO [Compound 330] | < 3.16 µM | < 3.16 µM | < 3.16 µM | < 3.16 µM | – | – | – | –
O=S(=O)(C1CCCC1)N1CCN(c2cccc3[nH]ncc23)CC1 [Compound 17] | 32.4 to 100 µM | > 100 µM | 3.24 to 31.6 µM | 3.24 to 31.6 µM | – | – | – | –
O=C1CN(c2cc(Cl)cc3[nH]ncc23)CCN1 [Compound 318] | > 100 µM | > 100 µM | 3.24 to 31.6 µM | 3.24 to 31.6 µM | – | – | – | –
CNC(=O)C1(C)CCN(c2cc(Cl)cc3[nH]ncc23)CC1 [Compound 382] | 3.24 to 31.6 µM | > 100 µM | < 3.16 µM | < 3.16 µM | – | – | – | –
c1ccc(Nc2cccc3[nH]ncc23)cc1 [Compound 36] | > 100 µM | > 100 µM | < 3.16 µM | 3.24 to 31.6 µM | – | – | – | –
Cc1cc(C2CCN(S(C)(=O)=O)CC2)c2cn[nH]c2c1 [Compound 30] | 3.24 to 31.6 µM | < 3.16 µM | < 3.16 µM | < 3.16 µM | – | – | – | –
CS(=O)(=O)N1CCN(c2cc(Cl)cc3c(N)noc23)CC1 [Compound 302] | 3.24 to 31.6 µM | > 100 µM | > 100 µM | 3.24 to 31.6 µM | – | – | – | –
O=C1CCCC2(CCN(c3cc(Cl)cc4[nH]ncc34)CC2)N1 [Compound 216] | 3.24 to 31.6 µM | > 100 µM | < 3.16 µM | < 3.16 µM | – | – | – | –
CC(C)CC(O)c1cc(Cl)cc2[nH]ncc12 (centres unmarked) [Compound 272] | 3.24 to 31.6 µM | 32.4 to 100 µM | < 3.16 µM | < 3.16 µM | – | – | – | –
CS(=O)(=O)c1ccc(-c2cc(Cl)cc3[nH]ncc23)cc1 [Compound 192, 6-chloro-4-(4-(methylsulfonyl)phenyl)-1H-indazole] | 3.24 to 31.6 µM | 3.24 to 31.6 µM | < 3.16 µM | < 3.16 µM | 5.62 µM | 15.5 µM | 0.129 µM | 0.0245 µM
Clc1cc(C2CCCCC2)c2cn[nH]c2c1 [Compound 353] | 32.4 to 100 µM | > 100 µM | < 3.16 µM | < 3.16 µM | – | – | – | –
CC(=O)N(C)C1CCN(c2cc(Cl)cc3[nH]ncc23)C1 (centres unmarked) [Compound 278] | 3.24 to 31.6 µM | 32.4 to 100 µM | < 3.16 µM | < 3.16 µM | – | – | – | –
O=C1NC2(CCN(c3cc(Cl)cc4[nH]ncc34)CC2)C(=O)N1Cc1ccccc1 [Compound 331] | < 3.16 µM | < 3.16 µM | < 3.16 µM | < 3.16 µM | – | – | – | –
Clc1cc(N2CCN(c3ccncc3)CC2)c2cn[nH]c2c1 [Compound 374] | 32.4 to 100 µM | > 100 µM | 3.24 to 31.6 µM | < 3.16 µM | – | – | – | –
